From patent publication US20250319015A1, “VACCINIUM MACROCARPON EXTRACT AND ANTI-AGEING COSMETIC EFFECTS THEREOF” (SOCIETE INDUSTRIELLE LIMOUSINE D'APPLICATION BIOLOGIQUE, priority 2021, published 2025)
Read-outs that look alike come from different tables or passages of the source. Marks after values point to notes of the source that are not given here.

Tests used:
[1] = system: older human fibroblasts by successive replications; experiment: Gene expression by quantitative PCR on older human fibroblasts; type: cell-based; details: 1 μM Retinol, young cells control=100
Experimental: The procedure of the study is described below. The young and older human cells are seeded and incubated at 37° C. […] After several days, the cells are recovered and the total RNA extracted. The RNAs were reverse-transcribed and the complementary DNAs obtained were analyzed by the quantitative PCR technique. The mRNAs of internal reference controls were analyzed in parallel with the mRNAs of the markers involved in the barrier function of the epidermis, in the DEJ and in the dermal matrix. The incorporation of fluorescence is measured continuously using a thermal cycler. The RQ (relative quantification) analysis is performed using software.

older human cells = experiment: Gene expression by quantitative PCR, structural elements of the DEJ, older cells; type: cell-based; details: 1 μM Retinol
Experimental: This study was carried out on 34 genes involved in the various processes related to the establishment of: • the skin barrier function: proliferation, hydration, cohesion, differentiation, desquamation, innate immunity, anti-oxidant and inflammation system (cf. Table 9: Proliferation, Hydration, Cohesion, Differentiation, Anti-Radical and Inflammation). • the dermal-epidermal junction DEJ; • the dermal matrix; organization and degradation of the fibers, hydration and inflammation (cf. Table 9: Matrix Organization, Matrix Degradation, Hydration, Proteoglycan, Growth and Inflammation Factors). […] The procedure of the study is described below. The young and older human cells are seeded and incubated at 37° C. […] After several days, the cells are recovered and the total RNA extracted. The RNAs were reverse-transcribed and the complementary DNAs obtained were analyzed by the quantitative PCR technique. The mRNAs of internal reference controls were analyzed in parallel with the mRNAs of the markers involved in the barrier function of the epidermis, in the DEJ and in the dermal matrix. The incorporation of fluorescence is measured continuously using a thermal cycler. The RQ (relative quantification) analysis is performed using software.

[2] = system: older reconstructed epidermises; experiment: Thickness of reconstructed epidermises (hematoxylin eosin stain); type: cell-based, human; details: 10 μM Retinol
Experimental: (§1) This study was carried out on normal and older reconstructed epidermises. The epidermal construction was evaluated using a Hematoxylin Eosin (HE) stain and the synthesis of the barrier function markers by immunohistofluorescence. The procedure of the study is described below. […] The epidermides are recovered, fixed, dehydrated, and enclosed in paraffin. Sections (4 μm) are then made using a microtome. The analysis of the thickness of the reconstructed epidermises is carried out by hematoxylin eosin (HE) stain. Viewing is performed using a microscope coupled to an image analysis system. The thickness of the epidermises obtained was measured on the histological sections produced.

Ki-67 = Ki-67 synthesis in reconstructed epidermises (immunohistofluorescence); type: cell-based, human; details: older reconstructed epidermises, 10 μM Retinol
Experimental: as §1, with “The analysis of the thickness of the reconstructed epidermises is carried out by hematoxylin eosin (HE) stain.” left out, “produced. The rate of the various synthesized markers is proportional to the intensity of green fluorescence present on the reconstructed epidermises. A quantitative analysis of the images was carried out using an image analysis script. The results are expressed in arbitrary units (AU).” for “produced.”

loricrin = experiment: Loricrin synthesis in reconstructed epidermises (immunohistofluorescence); type: cell-based, human; details: older reconstructed epidermises, 10 μM Retinol
Experimental: as §1, with “The analysis of the thickness of the reconstructed epidermises is carried out by hematoxylin eosin (HE) stain.” left out, “produced. The rate of the various synthesized markers is proportional to the intensity of green fluorescence present on the reconstructed epidermises. A quantitative analysis of the images was carried out using an image analysis script. The results are expressed in arbitrary units (AU).” for “produced.”

claudin-1 = experiment: Claudin-1 synthesis in reconstructed epidermises (immunohistofluorescence); type: cell-based, human; details: older reconstructed epidermises, 10 μM Retinol
Experimental: as §1, with “The analysis of the thickness of the reconstructed epidermises is carried out by hematoxylin eosin (HE) stain.” left out, “produced. The rate of the various synthesized markers is proportional to the intensity of green fluorescence present on the reconstructed epidermises. A quantitative analysis of the images was carried out using an image analysis script. The results are expressed in arbitrary units (AU).” for “produced.”

aquaporin 3 = experiment: Aquaporin 3 synthesis in reconstructed epidermises (immunohistofluorescence); type: cell-based, human; details: older reconstructed epidermises, 10 μM Retinol
Experimental: as §1, with “The analysis of the thickness of the reconstructed epidermises is carried out by hematoxylin eosin (HE) stain.” left out, “produced. The rate of the various synthesized markers is proportional to the intensity of green fluorescence present on the reconstructed epidermises. A quantitative analysis of the images was carried out using an image analysis script. The results are expressed in arbitrary units (AU).” for “produced.”

collagen I = experiment: Collagen I network by immunocytology on older human fibroblasts; type: cell-based; details: 0.1 μM Retinol
Experimental: Immunocytological labeling of collagen I is carried out by fixing and permeabilization using primary antibody I and secondary antibody coupled to a fluorophore. A quantitative analysis was carried out by reading the fluorescence of the various conditions tested using a fluorometer. The intensity of the collagen I network is proportional to the intensity of green fluorescence present. The results are expressed in fluorescence value (AU).

MMP-1 = MMP-1 level by ELISA on older human fibroblasts subjected to UVA; type: cell-based; details: UVA-irradiated older fibroblasts, 1 μM Retinol
Experimental: The older human fibroblasts are seeded and incubated at 37° C. in an atmosphere containing 5% CO2. The irradiations are carried out using a UV lamp with UVA intensities of 10 J/cm2.
(§2) The cells are then incubated at 37° C. in an atmosphere containing 5% CO2 for 48 hours.

hyaluronic acid = experiment: Hyaluronic acid synthesis by ELISA on older human fibroblasts; type: cell-based; details: 1 μM Retinol
Experimental: The older human fibroblasts are seeded and incubated at 37° C. in an atmosphere containing 5% CO2.
as §2

[3] = system: healthy Caucasian female volunteers; experiment: Complexion radiance by visual scoring by experts, Caucasian volunteers; type: in vivo, human; details: Retinol 0.075%
Experimental: The complexion radiance is evaluated by experts using the following parameters: radiance, […], olive color and eye fatigue.

[4] = system: healthy Caucasian female volunteers; experiment: Anti-wrinkle effect by light projection (crow's feet), Caucasian volunteers; type: in vivo, human; details: Retinol 0.075%
Experimental: The anti-wrinkle effect is evaluated according to the roughness parameter Sa, evaluated on the crow's feet zone by light projection and on the negative volume, evaluated on the same zone.

[5] = system: healthy Caucasian female volunteers; experiment: Transepidermal water losses (Tewameter), Caucasian volunteers; type: in vivo, human; details: Retinol 0.075%
Experimental: Transepidermal water losses (TEWL) measurements at the cheeks were carried out using a Tewameter® before and after 21 and 42 days of twice-daily application.
(§3) This study was carried out on 3 groups of 18 healthy, female volunteers, aged 45 to 66 years and presenting with crow's feet wrinkles. Each of the volunteers applied two of the three formulae to half the face twice-daily in a randomized manner for 42 days.

[6] = system: healthy Caucasian female volunteers; experiment: Structure of the dermal-epidermal junction by LC-OCT, Caucasian volunteers; type: in vivo, human; details: Retinol 0.075%
Experimental: (§4) This study was carried out on 3 groups of 18 healthy female volunteers, aged 45 to 66 years and presenting with crow's feet wrinkles. Each of the volunteers applied two of the three study formulae to half the face twice-daily in a randomized manner for 42 days.
Acquisitions carried out by LC-OCT after 21 and 42 days of treatment at the cheeks allowed evaluation of the structure of the dermal-epidermal junction

[7] = system: healthy Caucasian female volunteers; experiment: Quality of the dermal fibers by LC-OCT, Caucasian volunteers; type: in vivo, human; details: Retinol 0.075%
Experimental: as §4
Acquisitions carried out by LC-OCT after 21 and 42 days of treatment at the cheeks allowed evaluation of the structure of the quality of the fibers.

[8] = system: healthy Caucasian female volunteers; details: for Parameter a* (skin redness), change compared to placebo: Retinol 0.075%
Experimental: as §3

[9] = system: healthy Caucasian female volunteers; details: retinol 0.075%, 18 volunteers
Experimental: as §3

Water loss, change compared to placebo ([5]; D 21): +24% | Water loss, change compared to placebo ([5]; D 21, listed as retinol): +24% | Water loss, change compared to placebo ([5]; D 42): +15% | Water loss, change compared to placebo ([5]; D 42, listed as retinol): +15% | Appearance of skin redness, parameter a* (in words) ([8]; 0.075% of retinol, from 21 days of treatment): significantly increases parameter a* | Parameter a* (skin redness), change compared to placebo ([8]; D 21): +5% | Parameter a* (skin redness), change compared to placebo ([8]; D 42): +5%
SMILES: CC1=C(/C=C/C(C)=C/C=C/C(C)=C/CO)C(C)(C)CCC1 [Retinol, retinol]
IL1 expression (qPCR) [1]: 567 | LUM expression (qPCR) [1]: 87 | MMP1 expression (qPCR) [1]: 164 | POSTN expression (qPCR) [1]: 56 | TGFβ1 expression (qPCR) [1]: 103 | VEGFA expression (qPCR) [1]: 93 | COL4A1: Efficacy of retinol/older control (%) (older human cells): −5% | COL7A1: Efficacy of retinol/older control (%) (older human cells): −21% | COL17A1: Efficacy of retinol/older control (%) (older human cells): −16% | LAMA3: Efficacy of retinol/older control (%) (older human cells): −9% | COL4A1 expression (qPCR) (older human cells; young cells control=100): 38 | COL7A1 expression (qPCR) (older human cells; young cells control=100): 68 | COL17A1 expression (qPCR) (older human cells; young cells control=100): 81 | LAMA3 expression (qPCR) (older human cells; young cells control=100): 94 | Ability to restore the thickness of the epidermis (%) [2]: +94% | Measurement of the thickness of the epidermis (μm) ([2]; 48 hours): 59 μm | Ability to restore Ki-67 synthesis (%) (Ki-67): +71% | Ki-67-positive cells (%) (Ki-67; 48 hours): 23% | Ability to restore loricrin synthesis (%) (loricrin): 0% | Synthesis of loricrin (×10^4 AU) (loricrin; 48 hours): 177 ×10^4 AU | Ability to restore claudin-1 synthesis (%) (claudin-1): 0% | Synthesis of claudin-1 (×10^4 AU) (claudin-1; 48 hours): 136 ×10^4 AU | Ability to restore aquaporin 3 synthesis (%) (aquaporin 3): +100% | Aquaporin 3 synthesis (×10^4 AU) (aquaporin 3; 48 hours): 355** ×10^4 AU | Synthesis of the collagen I network (×10^3 AU) (collagen I): 174 ×10^3 AU | Ability to reduce the MMP-1 level (%) (MMP-1): +33% | MMP-1 content (ng/mg proteins) (MMP-1; 48 hours): 46 ng/mg proteins | Synthesis of hyaluronic acid (ng/mg proteins) (hyaluronic acid; Older fibroblasts, 48 hours): 4112 ng/mg proteins | Content of hyaluronic acid/control (%) (hyaluronic acid; older fibroblasts): +8% | Eye fatigue, change compared to placebo ([3]; D 21): −2% | Olive color, change compared to placebo ([3]; D 21): −11% | Pinkness, change compared to placebo ([3]; D 21): +14% | Radiance, change compared to placebo ([3]; D 21): +6% | Eye fatigue, change compared to placebo ([3]; J42): −10% | Olive color, change compared to placebo ([3]; J42): −10% | Pinkness, change compared to placebo ([3]; J42): +19% | Radiance, change compared to placebo ([3]; J42): +11% | Negative Volume (crow's feet), change compared to placebo ([4]; D 21): −12% | Parameter Sa (roughness, crow's feet), change compared to placebo ([4]; D 21): −5% | Negative Volume (crow's feet), change compared to placebo ([4]; D 42): −20% | Parameter Sa (roughness, crow's feet), change compared to placebo ([4]; D 42): −7% | Negative Volume (crow's feet), change compared to placebo ([4]; D 42, listed as retinol): −20% | Sinuosity of the DEJ, change compared to placebo ([6]; D 21): +2% | Sinuosity of the DEJ, change compared to placebo ([6]; D 21, listed as retinol): +2% | Sinuosity of the DEJ, change compared to placebo ([6]; D 42): +3% | Sinuosity of the DEJ, change compared to placebo ([6]; D 42, listed as retinol): +3% | Fiber Quality, change compared to placebo ([7]; D 21): +3% | Fiber Quality, change compared to placebo ([7]; D 21, listed as retinol): +3% | Fiber Quality, change compared to placebo ([7]; D 42): +12% | Incident rate of adverse effects [9]: 17% | Subjects who demonstrated adverse effects likely caused by the study product ([9]; 42 days): three
